Assay results from PMC6996867 (Journal of Medicinal Chemistry, 2010).

Legend:
pKa = assay type: physicochemical
[1] = In vivo pharmacokinetic studies in mice
[2] = system: P. berghei strain GFP ANKA; experiment: In vivo antimalarial activity, P. berghei infected malaria mouse model; design: species or system Plasmodium berghei (female NMRI mice)

pKa (pKa; pKa1, first pKa)	pKa (pKa; pKa2, second pKa)	SMILES	total systemic clearance relative to hepatic blood flow ([1]; mice, intravenous administration) [% hepatic blood flow]	exposure (AUC∞) greater than 9a ([1]; mice, oral, 20a vs 9a) [fold]	half-life ([1]; mouse, plasma) [h]	full cure (no parasites at day 30) ([2]; 3 × 30 mg/kg oral doses)	toxicity or behavioral changes after drug administration ([2]; treated mice, any dosing regimen)
4.8		C[C@H]1Cc2c([nH]c3ccc(F)cc23)[C@@]2(N1)C(=O)Nc1ccc(Cl)cc12 [Compound 17a, (1R,3S)-5′-Chloro-6-fluoro-3-methyl-2,3,4,9-tetrahydrospiro[β-carboline-1,3′-indol]-2′(1′H)-one]					
5.2	10.6	C[C@H]1Cc2c([nH]c3cc(Cl)ccc23)[C@@]2(N1)C(=O)Nc1ccc(Cl)cc12 [Compound 18a, (1R,3S)-5′,7-Dichloro-3-methyl-2,3,4,9-tetrahydrospiro[β-carboline-1,3′-indol]-2′(1′H)-one]					
5.2		C[C@H]1CCc2c([nH]c3ccccc23)[C@@]2(N1)C(=O)Nc1ccc(Br)cc12 [Compound 1a, (1R,3S)-5′-Bromo-3-methyl-3,4,5,10-tetrahydro-2H-spiro[azepino[3,4-b]indole-1,3′-indol]-2′(1′H)-one]					

SMILES	pKa (pKa; pKa1, first pKa)	pKa (pKa; pKa2, second pKa)	total systemic clearance relative to hepatic blood flow ([1]; mice, intravenous administration) [% hepatic blood flow]	exposure (AUC∞) greater than 9a ([1]; mice, oral, 20a vs 9a) [fold]	half-life ([1]; mouse, plasma) [h]	full cure (no parasites at day 30) ([2]; 3 × 30 mg/kg oral doses)	toxicity or behavioral changes after drug administration ([2]; treated mice, any dosing regimen)
C[C@H]1Cc2c([nH]c3cc(F)c(F)cc23)[C@@]2(N1)C(=O)Nc1ccc(Cl)cc12 [Compound 20a, (1R,3S)-5′-Chloro-6,7-difluoro-3-methyl-2,3,4,9-tetrahydrospiro[β-carboline-1,3′-indol]-2′(1′H)-one]	4.9		~10	18	3	four out of five mice	neither toxicity nor behavioral changes
